Measured values reported in patent US11045507B2, “Bifidobacterium animalis AMT30 strain and the composition containing the strain of Bifidobacterium animalis AMT30” (priority 2019, dated 2021).

System: Bifidobacterium animalis AMT30
Assay: Ability of Bifidobacterium animalis AMT30 to grow in the presence of selected antibiotics (shared cultures, Garche's liquid medium)
Format: cell-based
Conditions: for growth of AMT30 in the presence of the antibiotic (in words): 24 h shared culture, relative to control culture or inoculum; for The number of B. animalis AMT30 after 24 hours of incubation: inoculum AMT30 4.9 × 10^6 cfu/ml, antibiotic at concentration corresponding to the animal dose per kg b.w., control without antibiotic 2.4 × 10^9
Protocol: Studies on the ability to grow of Bifidobacterium animalis AMT30 in the presence on 20 selected antibiotics were performed using shared cultures method. For this purpose Garche's liquid medium was inoculated with both Bifidobacterium animalis AMT30 in an amount of 4.9×10^6 colony forming units/ml and one of 20 antibiotics in concentration corresponding to an antibiotic dose used in animal treatment per kilogram of body weight. The culture was carried out in three parallel tubes under anaerobic conditions at 37° C. for 24 hours. In addition, parallel control culture of the studied strain without presence of selected antibiotics was carried out. The number of the live cells was determined directly after inoculation and after 24 hours. Incubation of bacteria on Petri dishes was carried out at 37° C. for 48 hours under anaerobic conditions (sealed jar with GasPack AN0025A cartridge, Oxoid).

## CC[C@H]1OC(=O)C[C@@H](O)[C@H](C)[C@@H](O[C@@H]2O[C@H](C)[C@@H](O[C@H]3C[C@@](C)(O)[C@@H](O)[C@H](C)O3)[C@H](N(C)C)[C@H]2O)[C@@H](CC=O)C[C@@H](C)C(=O)/C=C/C(C)=C/[C@@H]1CO[C@@H]1O[C@H](C)[C@@H](O)[C@@H](OC)[C@H]1OC [Tylosin]
  growth of AMT30 in the presence of the antibiotic (in words): remained at the level of inoculum

## Neomycin
  growth of AMT30 in the presence of the antibiotic (in words): Outstanding activity to multiply
  The number of B. animalis AMT30 after 24 hours of incubation: 3.3 × 10^7 cfu/ml

## CC[C@H]1OC(=O)C[C@@H](O)[C@H](C)[C@@H](O[C@@H]2O[C@H](C)[C@@H](O)[C@H](N(C)C)[C@H]2O)[C@@H](CCN2C[C@H](C)C[C@H](C)C2)C[C@@H](C)C(=O)/C=C/C(C)=C/[C@@H]1CO[C@@H]1O[C@H](C)[C@@H](O)[C@@H](OC)[C@H]1OC [Tilmicosin]
  growth of AMT30 in the presence of the antibiotic (in words): remained at the level of inoculum

## Nc1ccc(S(=O)(=O)[N-]c2cncc(Cl)n2)cc1.[Na+] [Sodium sulfachloropyrazine]
  growth of AMT30 in the presence of the antibiotic (in words): Outstanding activity to multiply
  The number of B. animalis AMT30 after 24 hours of incubation: 2.4 × 10^9 cfu/ml

## Colistin
  growth of AMT30 in the presence of the antibiotic (in words): Outstanding activity to multiply
  The number of B. animalis AMT30 after 24 hours of incubation: 1.9 × 10^9 cfu/ml

## COC(=O)Nc1nc2cc(C(=O)c3ccc(F)cc3)ccc2[nH]1 [Flubendazole]
  growth of AMT30 in the presence of the antibiotic (in words): Outstanding activity to multiply

## c1ccc([C@H]2CN3CCSC3=N2)cc1 [Levamisole]
  growth of AMT30 in the presence of the antibiotic (in words): Outstanding activity to multiply

## CC[C@H]1OC(=O)C[C@@H](OC(C)=O)[C@H](C)[C@@H](O[C@@H]2O[C@H](C)[C@@H](O[C@H]3C[C@@](C)(O)[C@@H](OC(=O)CC(C)C)[C@H](C)O3)[C@H](N(C)C)[C@H]2O)[C@@H](CC=O)C[C@@H](C)C(=O)/C=C/C(C)=C/[C@@H]1CO[C@@H]1O[C@H](C)[C@@H](O)[C@@H](OC)[C@H]1OC [Tylvalosin]
  The number of B. animalis AMT30 after 24 hours of incubation: 3.2 × 10^5 cfu/ml

## Cc1cc(-n2c(=O)[nH]c(=O)n(C)c2=O)ccc1Oc1ccc(SC(F)(F)F)cc1 [Toltrazuril]
  growth of AMT30 in the presence of the antibiotic (in words): Outstanding activity to multiply

## CCCc1ncc(C[n+]2ccccc2C)c(N)n1 [Amprolium]
  growth of AMT30 in the presence of the antibiotic (in words): Outstanding activity to multiply
